Measurements from PubChem BioAssay (NCI).
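All cell lines were grown in 96-well plates and treated with compound for 48 hours. The concentration for 50% growth inhibition is given as GI50. TGI denotes the concentration required for complete inhibition of growth.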

Experiments:
Experiment in all cases: DTP human tumour cell line panel, 48 h
OVCAR-5 ovarian = system: OVCAR-5 ovarian
IGROV1 ovarian = system: IGROV1 ovarian
HT29 colon = system: HT29 colon
HCT-116 colon = system: HCT-116 colon
TK-10 renal = system: TK-10 renal
A498 renal = system: A498 renal
SK-MEL-28 melanoma = system: SK-MEL-28 melanoma
U251 CNS = system: U251 CNS
OVCAR-8 ovarian = system: OVCAR-8 ovarian
UACC-62 melanoma = system: UACC-62 melanoma
NCI-H522 lung = system: NCI-H522 lung
EKVX NSCLC = system: EKVX NSCLC
M14 melanoma = system: M14 melanoma
SF-539 CNS = system: SF-539 CNS
BT-549 breast = system: BT-549 breast
OVCAR-4 ovarian = system: OVCAR-4 ovarian
A549 NSCLC = system: A549 NSCLC
NCI-H226 lung = system: NCI-H226 lung
HS 578T breast = system: HS 578T breast
NCI-H460 lung = system: NCI-H460 lung
SF-295 CNS = system: SF-295 CNS
HOP-92 NSCLC = system: HOP-92 NSCLC
SNB-75 CNS = system: SNB-75 CNS
MALME-3M melanoma = system: MALME-3M melanoma
SNB-19 CNS = system: SNB-19 CNS
UACC-257 melanoma = system: UACC-257 melanoma
MDA-MB-231 breast = system: MDA-MB-231 breast
NCI/ADR-RES ovarian = system: NCI/ADR-RES ovarian
RPMI-8226 leukemia = system: RPMI-8226 leukemia
HCC-2998 colon = system: HCC-2998 colon
786-0 renal = system: 786-0 renal
MOLT-4 leukemia = system: MOLT-4 leukemia
SK-OV-3 ovarian = system: SK-OV-3 ovarian
MDA-MB-435 = system: MDA-MB-435
SK-MEL-5 melanoma = system: SK-MEL-5 melanoma
SF-268 CNS = system: SF-268 CNS
MCF7 breast = system: MCF7 breast
KM12 colon = system: KM12 colon
HCT-15 colon = system: HCT-15 colon
SK-MEL-2 melanoma = system: SK-MEL-2 melanoma
HOP-62 NSCLC = system: HOP-62 NSCLC
CAKI-1 renal = system: CAKI-1 renal
SW-620 colon = system: SW-620 colon
RXF 393 renal = system: RXF 393 renal
COLO 205 colon = system: COLO 205 colon
PC-3 prostate = system: PC-3 prostate
CCRF-CEM leukemia = system: CCRF-CEM leukemia
K-562 leukemia = system: K-562 leukemia
ACHN renal = system: ACHN renal
SN12C renal = system: SN12C renal
LOX IMVI melanoma = system: LOX IMVI melanoma
HL-60(TB) leukemia = system: HL-60(TB) leukemia
UO-31 renal = system: UO-31 renal
NCI-H23 lung = system: NCI-H23 lung
DU-145 prostate = system: DU-145 prostate

Cc1ccc(-c2c(C#N)c(-c3ccccc3)c(C#N)c(=O)n2NS(=O)(=O)c2ccc(C)cc2)cc1
TGI (OVCAR-5 ovarian): > 100 µM
TGI (IGROV1 ovarian): > 100 µM
TGI (HT29 colon): > 100 µM
TGI (HCT-116 colon): > 100 µM
TGI (TK-10 renal): > 100 µM
TGI (A498 renal): > 100 µM
TGI (SK-MEL-28 melanoma): > 100 µM
TGI (U251 CNS): > 100 µM
TGI (OVCAR-8 ovarian): > 100 µM
TGI (UACC-62 melanoma): > 100 µM
TGI (NCI-H522 lung): > 100 µM
TGI (EKVX NSCLC): > 100 µM
TGI (M14 melanoma): > 100 µM
TGI (SF-539 CNS): > 100 µM
TGI (BT-549 breast): > 100 µM
TGI (OVCAR-4 ovarian): > 100 µM
TGI (A549 NSCLC): > 100 µM
TGI (NCI-H226 lung): > 100 µM
TGI (HS 578T breast): > 100 µM
TGI (NCI-H460 lung): > 100 µM
TGI (SF-295 CNS): > 100 µM
TGI (HOP-92 NSCLC): > 100 µM
TGI (SNB-75 CNS): > 100 µM
TGI (MALME-3M melanoma): > 100 µM
TGI (SNB-19 CNS): 33.5 µM
TGI (UACC-257 melanoma): > 100 µM
TGI (MDA-MB-231 breast): > 100 µM
TGI (NCI/ADR-RES ovarian): > 100 µM
TGI (RPMI-8226 leukemia): 8.79 µM
TGI (HCC-2998 colon): > 100 µM
TGI (786-0 renal): > 100 µM
TGI (MOLT-4 leukemia): 41.1 µM
TGI (SK-OV-3 ovarian): > 100 µM
TGI (MDA-MB-435): > 100 µM
TGI (SK-MEL-5 melanoma): 31.9 µM
TGI (SF-268 CNS): > 100 µM
TGI (MCF7 breast): > 100 µM
TGI (KM12 colon): > 100 µM
TGI (HCT-15 colon): > 100 µM
TGI (SK-MEL-2 melanoma): > 100 µM
TGI (HOP-62 NSCLC): > 100 µM
TGI (CAKI-1 renal): > 100 µM
TGI (SW-620 colon): > 100 µM
TGI (RXF 393 renal): > 100 µM
TGI (COLO 205 colon): > 100 µM
TGI (PC-3 prostate): > 100 µM
TGI (CCRF-CEM leukemia): 89.7 µM
TGI (K-562 leukemia): > 100 µM
TGI (ACHN renal): > 100 µM
TGI (SN12C renal): > 100 µM
TGI (LOX IMVI melanoma): > 100 µM

COc1ccc2c(c1)SC1=NNC(Cl)C(=O)N12 (stereo not given)
GI50 (OVCAR-5 ovarian): 27.9 µM
TGI (OVCAR-5 ovarian): 94.1 µM
GI50 (IGROV1 ovarian): 25.2 µM
TGI (IGROV1 ovarian): > 100 µM
GI50 (HT29 colon): 11.8 µM
TGI (HT29 colon): 35.1 µM
GI50 (HCT-116 colon): 24 µM
TGI (HCT-116 colon): 87.3 µM
GI50 (TK-10 renal): 26.6 µM
TGI (TK-10 renal): 81.1 µM
GI50 (A498 renal): 26.1 µM
TGI (A498 renal): 53.3 µM
GI50 (HL-60(TB) leukemia): 33.9 µM
TGI (HL-60(TB) leukemia): > 100 µM
GI50 (SK-MEL-28 melanoma): 13.7 µM
TGI (SK-MEL-28 melanoma): 35.2 µM
GI50 (UO-31 renal): 5.9 µM
TGI (UO-31 renal): > 100 µM
GI50 (U251 CNS): 18.9 µM
TGI (U251 CNS): 45.1 µM
GI50 (OVCAR-8 ovarian): 21.5 µM
TGI (OVCAR-8 ovarian): 54.2 µM
GI50 (UACC-62 melanoma): 15.6 µM
TGI (UACC-62 melanoma): 36 µM
GI50 (EKVX NSCLC): 10.5 µM
TGI (EKVX NSCLC): 29.1 µM
GI50 (M14 melanoma): 17.3 µM
TGI (M14 melanoma): 48.4 µM
GI50 (SF-539 CNS): 15.6 µM
TGI (SF-539 CNS): 37.8 µM
GI50 (BT-549 breast): 17.2 µM
TGI (BT-549 breast): 40.6 µM
GI50 (A549 NSCLC): 38.1 µM
TGI (A549 NSCLC): > 100 µM
GI50 (NCI-H226 lung): 16.2 µM
TGI (NCI-H226 lung): 64.3 µM
GI50 (HS 578T breast): 40.4 µM
TGI (HS 578T breast): > 100 µM
GI50 (NCI-H460 lung): 29.5 µM
TGI (NCI-H460 lung): > 100 µM
GI50 (HOP-92 NSCLC): 20.1 µM
TGI (HOP-92 NSCLC): 56.2 µM
GI50 (SNB-75 CNS): 30.3 µM
TGI (SNB-75 CNS): 83.5 µM
GI50 (SNB-19 CNS): 38.4 µM
TGI (SNB-19 CNS): > 100 µM
GI50 (UACC-257 melanoma): 18.2 µM
TGI (UACC-257 melanoma): 42.5 µM
GI50 (MDA-MB-231 breast): 15.3 µM
TGI (MDA-MB-231 breast): 35.6 µM
GI50 (NCI/ADR-RES ovarian): 19.8 µM
TGI (NCI/ADR-RES ovarian): 47.6 µM
GI50 (RPMI-8226 leukemia): 18.2 µM
TGI (RPMI-8226 leukemia): 54.1 µM
GI50 (786-0 renal): 33.2 µM
TGI (786-0 renal): > 100 µM
GI50 (NCI-H23 lung): 18 µM
TGI (NCI-H23 lung): 39.6 µM
GI50 (MOLT-4 leukemia): 31.2 µM
TGI (MOLT-4 leukemia): > 100 µM
GI50 (SK-OV-3 ovarian): 33 µM
TGI (SK-OV-3 ovarian): > 100 µM
GI50 (SK-MEL-5 melanoma): 15.6 µM
TGI (SK-MEL-5 melanoma): 34 µM
GI50 (SF-268 CNS): 24.2 µM
TGI (SF-268 CNS): 62.1 µM
GI50 (MCF7 breast): 24.5 µM
TGI (MCF7 breast): > 100 µM
GI50 (KM12 colon): 20.7 µM
TGI (KM12 colon): 48 µM
GI50 (HCT-15 colon): 15.8 µM
TGI (HCT-15 colon): 38.4 µM
GI50 (SK-MEL-2 melanoma): 42.1 µM
TGI (SK-MEL-2 melanoma): > 100 µM
GI50 (HOP-62 NSCLC): 45.5 µM
TGI (HOP-62 NSCLC): > 100 µM
GI50 (SW-620 colon): 21.8 µM
TGI (SW-620 colon): 65.7 µM
GI50 (RXF 393 renal): 18.4 µM
TGI (RXF 393 renal): 59.1 µM
GI50 (COLO 205 colon): 16.7 µM
TGI (COLO 205 colon): 44.3 µM
GI50 (PC-3 prostate): 37 µM
TGI (PC-3 prostate): > 100 µM
GI50 (DU-145 prostate): 12.8 µM
TGI (DU-145 prostate): 30.3 µM
GI50 (K-562 leukemia): 35.3 µM
TGI (K-562 leukemia): > 100 µM
GI50 (ACHN renal): 12.4 µM
TGI (ACHN renal): 26.3 µM
GI50 (SN12C renal): 16.5 µM
TGI (SN12C renal): 37.3 µM
GI50 (LOX IMVI melanoma): 16 µM
TGI (LOX IMVI melanoma): 37.4 µM
